Experimental data published in patent publication US9833497B2, “Human originated EGF domain proteins and use of the same” (CHENGDU SOURCEBIO LIMITED-LIABILITY COMPANY, priority 2013, dated 2017).

Experiments:
Assay type in all cases: cell-based
Serratia marcescens = assay: MIC against Gram-negative bacteria: Serratia marcescens; settings: for MIC / MIC (μg/mL) S. marcescens: S. marcescens
In short: (§1)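 Read-out is absence of bacterial growth, with MIC set at the lowest recombinant protein concentration achieving it. Bacteria, pre-grown in LB to McFarland 0.5 and resuspended, were exposed at 5×10^5 CFU/mL to two-fold diluted human EGF domain proteins in triplicate at 37° C, 175 rpm.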

Enterobacter cloacae = assay: MIC against Gram-negative bacteria: Enterobacter cloacae; settings: for MIC / MIC (μg/mL) E. cloacae: E. cloacae
In short: as §1

Pseudomonas aeruginosa = assay: MIC against Gram-negative bacteria: Pseudomonas aeruginosa; settings: for MIC / MIC (μg/mL) P. aeruginosa: P. aeruginosa
In short: as §1

E. coli BL21 = assay: MIC against Gram-negative bacteria: E. coli BL21
In short: as §1

Moraxella catarrhalis = assay: MIC against Gram-negative bacteria: Moraxella catarrhalis; settings: for MIC / MIC (μg/mL) M. catarrhalis: M. catarrhalis
In short: as §1

Aeromonas hydrophila = assay: MIC against Gram-negative bacteria: Aeromonas hydrophila; settings: for MIC / MIC (μg/mL) A. hydrophila: A. hydrophila
In short: as §1

Citrobacter diversus = assay: MIC against Gram-negative bacteria: Citrobacter diversus; settings: for MIC / MIC (μg/mL) C. diversus: C. diversus
In short: as §1

Proteus vulgaris = assay: MIC against Gram-negative bacteria: Proteus vulgaris; settings: for MIC / MIC (μg/mL) P. vulgaris: P. vulgaris
In short: as §1

E. coli DH5α = assay: Antibacterial activity: MIC and growth curve against E. coli DH5α in 96-well plate; settings: minimal inhibitory concentration against E. coli DH5α; 96-well plate, 5×10^5 CFU/mL, 37° C., judged after 8 h
In short: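 Log-phase bacteria (OD600 ~0.5) resuspended in LB at 5×10^5 CFU/mL, exposed to recombinant protein at 50, 25, 12.5 μg/mL final in triplicate, 37 °C shaking at 175 rpm. OD600 read every 30 min; MIC is lowest concentration showing no growth.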

Proteus mirabilis = assay: MIC against Gram-negative bacteria: Proteus mirabilis; settings: for MIC / MIC (μg/mL) P. mirabilis: P. mirabilis
In short: as §1

Klebsiella pneumonia = assay: MIC against Gram-negative bacteria: Klebsiella pneumonia; settings: for MIC / MIC (μg/mL) K. pneumonia: K. pneumonia
In short: as §1

[1] = 10 h cultivation at 37° C., 5×10^5 CFU/mL, two-fold serial dilution
[2] = E. coli BL21, 10 h cultivation at 37° C.
[3] = 96-well plate, 5×10^5 CFU/mL, 37° C., 10 h
[4] = 10 h cultivation at 37° C., 5×10^5 CFU/mL
[5] = E. coli BL21, 10 h cultivation at 37° C., 5×10^5 CFU/mL

## PRT1140 (DVKDCLFLSCQDYGDCEDMVNNFRCICRPGFSGSLCE; listed as Homo sapiens)
Serratia marcescens; [1]
  MIC S. marcescens: 100 µg/mL
Enterobacter cloacae; [1]
  MIC E. cloacae: 12.5 µg/mL
Pseudomonas aeruginosa; [1]
  MIC P. aeruginosa: 12.5 µg/mL
E. coli BL21; [1]
  MIC E. coli BL21: 50 µg/mL
Moraxella catarrhalis; [1]
  MIC M. catarrhalis: 50 µg/mL
Aeromonas hydrophila; [1]
  MIC A. hydrophila: 50 µg/mL
Citrobacter diversus; [1]
  MIC C. diversus: 12.5 µg/mL
Proteus vulgaris; [1]
  MIC P. vulgaris: 50 µg/mL
E. coli DH5α
  MIC: 25 µg/mL
Proteus mirabilis; [1]
  MIC P. mirabilis: 12.5 µg/mL
Klebsiella pneumonia; [1]
  MIC K. pneumonia: 50 µg/mL

## PRT1018 (DVDECETQGPPHCRNGGTCQNSAGSFHCVCVSGWGGTSCE; listed as Homo sapiens)
Serratia marcescens; 10 h cultivation at 37° C.
  MIC: 25 µg/mL
Enterobacter cloacae; 10 h cultivation at 37° C.
  MIC: 25 µg/mL
Pseudomonas aeruginosa; 10 h cultivation at 37° C.
  MIC: 50 µg/mL
E. coli BL21; [2]
  MIC: 12.5 µg/mL
Moraxella catarrhalis; 10 h cultivation at 37° C.
  MIC: 50 µg/mL
Aeromonas hydrophila; 10 h cultivation at 37° C.
  MIC: 50 µg/mL
Citrobacter diversus; 10 h cultivation at 37° C.
  MIC: 12.5 µg/mL
Proteus vulgaris; 10 h cultivation at 37° C.
  MIC: 50 µg/mL
E. coli DH5α
  MIC: 25 µg/mL
Proteus mirabilis; 10 h cultivation at 37° C.
  MIC: 12.5 µg/mL
Klebsiella pneumonia; 10 h cultivation at 37° C.
  MIC: 12.5 µg/mL

## PRT909 (LVDECSPSPCQNGATCTDYLGGYSCKCVAGYHGVNCS; listed as Homo sapiens)
Serratia marcescens; 10 h cultivation at 37° C.
  MIC: 12.5 µg/mL
Enterobacter cloacae; 10 h cultivation at 37° C.
  MIC: 25 µg/mL
Pseudomonas aeruginosa; 10 h cultivation at 37° C.
  MIC: 12.5 µg/mL
E. coli BL21; [2]
  MIC: 25 µg/mL
Moraxella catarrhalis; 10 h cultivation at 37° C.
  MIC: 25 µg/mL
Aeromonas hydrophila; 10 h cultivation at 37° C.
  MIC: 12.5 µg/mL
Citrobacter diversus; 10 h cultivation at 37° C.
  MIC: 50 µg/mL
Proteus vulgaris; 10 h cultivation at 37° C.
  MIC: 50 µg/mL
E. coli DH5α
  MIC: 50 µg/mL
Proteus mirabilis; 10 h cultivation at 37° C.
  MIC: 12.5 µg/mL
Klebsiella pneumonia; 10 h cultivation at 37° C.
  MIC: 50 µg/mL

## PRT710 (DQDECAVYGTCSQTCRNTHGSYTCSCVEGYLMQPDNRSCK; listed as Homo sapiens)
Serratia marcescens; [3]
  MIC S. marcescens: 50 µg/mL
Enterobacter cloacae; [3]
  MIC E. cloacae: 50 µg/mL
Pseudomonas aeruginosa; [3]
  MIC P. aeruginosa: 50 µg/mL
E. coli BL21; [3]
  MIC E. coli BL21: 12.5 µg/mL
Moraxella catarrhalis; [3]
  MIC M. catarrhalis: 25 µg/mL
Aeromonas hydrophila; [3]
  MIC A. hydrophila: 12.5 µg/mL
Citrobacter diversus; [3]
  MIC C. diversus: 50 µg/mL
Proteus vulgaris; [3]
  MIC P. vulgaris: 25 µg/mL
E. coli DH5α
  MIC: 25 µg/mL
Proteus mirabilis; [3]
  MIC P. mirabilis: 12.5 µg/mL
Klebsiella pneumonia; [3]
  MIC K. pneumonia: 12.5 µg/mL

## PRT1450 (VPSNCDCLNGGTCVSNKYFSNIHWCNCPKKFGGQHCE; listed as Homo sapiens)
Serratia marcescens; Serratia marcescens, 5×10^5 CFU/mL, 10 h cultivation at 37° C.
  MIC against S. marcescens: 25 µg/mL
Enterobacter cloacae; Enterobacter cloacae, 5×10^5 CFU/mL, 10 h cultivation at 37° C.
  MIC against E. cloacae: 25 µg/mL
Pseudomonas aeruginosa; Pseudomonas aeruginosa, 5×10^5 CFU/mL, 10 h cultivation at 37° C.
  MIC against P. aeruginosa: 50 µg/mL
E. coli BL21; E. coli BL21, 5×10^5 CFU/mL, 10 h cultivation at 37° C.
  MIC against E. coli BL21: 25 µg/mL
Moraxella catarrhalis; Moraxella catarrhalis, 5×10^5 CFU/mL, 10 h cultivation at 37° C.
  MIC against M. catarrhalis: 12.5 µg/mL
Aeromonas hydrophila; Aeromonas hydrophila, 5×10^5 CFU/mL, 10 h cultivation at 37° C.
  MIC against A. hydrophila: 50 µg/mL
Citrobacter diversus; Citrobacter diversus, 5×10^5 CFU/mL, 10 h cultivation at 37° C.
  MIC against C. diversus: 25 µg/mL
Proteus vulgaris; Proteus vulgaris, 5×10^5 CFU/mL, 10 h cultivation at 37° C.
  MIC against P. vulgaris: 12.5 µg/mL
E. coli DH5α
  MIC: 12.5 µg/mL
Proteus mirabilis; Proteus mirabilis, 5×10^5 CFU/mL, 10 h cultivation at 37° C.
  MIC against P. mirabilis: 25 µg/mL
Klebsiella pneumonia; Klebsiella pneumonia, 5×10^5 CFU/mL, 10 h cultivation at 37° C.
  MIC against K. pneumonia: 12.5 µg/mL

## PRT183 (ECIPHNGCRHGTCSTPWQCTCDEGWGGLFCD; listed as Homo sapiens)
Serratia marcescens; [4]
  MIC (μg/mL) S. marcescens: 12.5 µg/mL
Enterobacter cloacae; [4]
  MIC (μg/mL) E. cloacae: 12.5 µg/mL
Pseudomonas aeruginosa; [4]
  MIC (μg/mL) P. aeruginosa: 12.5 µg/mL
E. coli BL21; [5]
  MIC (μg/mL) E. coli BL21: 12.5 µg/mL
Moraxella catarrhalis; [4]
  MIC (μg/mL) M. catarrhalis: 25 µg/mL
Aeromonas hydrophila; [4]
  MIC (μg/mL) A. hydrophila: 25 µg/mL
Citrobacter diversus; [4]
  MIC (μg/mL) C. diversus: 12.5 µg/mL
Proteus vulgaris; [4]
  MIC (μg/mL) P. vulgaris: 25 µg/mL
E. coli DH5α
  MIC: 12.5 µg/mL
Proteus mirabilis; [4]
  MIC (μg/mL) P. mirabilis: 12.5 µg/mL
Klebsiella pneumonia; [4]
  MIC (μg/mL) K. pneumonia: 25 µg/mL

## PRT782 (AERCDCSHADGCHPTTGHCRCLPGWSGVHCD; listed as Homo sapiens)
Serratia marcescens; [4]
  MIC (μg/mL) S. marcescens: 50 µg/mL
Enterobacter cloacae; [4]
  MIC (μg/mL) E. cloacae: 12.5 µg/mL
Pseudomonas aeruginosa; [4]
  MIC (μg/mL) P. aeruginosa: 12.5 µg/mL
E. coli BL21; [5]
  MIC (μg/mL) E. coli BL21: 25 µg/mL
Moraxella catarrhalis; [4]
  MIC (μg/mL) M. catarrhalis: 12.5 µg/mL
Aeromonas hydrophila; [4]
  MIC (μg/mL) A. hydrophila: 12.5 µg/mL
Citrobacter diversus; [4]
  MIC (μg/mL) C. diversus: 12.5 µg/mL
Proteus vulgaris; [4]
  MIC (μg/mL) P. vulgaris: 12.5 µg/mL
E. coli DH5α
  MIC: 50 µg/mL
Proteus mirabilis; [4]
  MIC (μg/mL) P. mirabilis: 25 µg/mL
Klebsiella pneumonia; [4]
  MIC (μg/mL) K. pneumonia: 12.5 µg/mL
